In patent publication US20080161248A1, “Methods and Compositions for Therapeutic Treatment” (priority 2006, published 2008):

Key:
[1] = system: mouse spleen cells, response to LPS; test: In vitro LPS assay on spleen cells; type: cell-based; conditions: high ([…]10^6 cells/well) and low (8×10^5 cells/well) cell concentration
Excerpt: (§1) Animals: 8-9 weeks-old Lewis and Brown Norway male rats were obtained from Charles River Laboratories. General procedures for animal care and housing was in accordance with the National Research Council (NRC) Guide for the Care and Use of Laboratory Animals (1996) and the Animal Welfare Standards incorporated in 9 CFR Part 3, 1991.
(§2) Spleens were collected for use in in vitro Con A and LPS assays.
FIGS. 10 and 11 show the effect of quercetin and tacrolimus on response of mouse spleen cells to LPS at a high (1.6×10^6 cells/well) and low (8×10^5 cells/well) cell concentration, respectively.

[2] = Pharmacokinetics of FK 506 i.v. with LNS 0694 i.p. in Lewis rats; type: in vivo, rat; conditions: male Lewis rats; FK 506 1 mg/kg i.v.; LNS 0694 i.p. different doses
Experimental: as §1
Treatment: Lewis rats were treated as described in example 3. Subsets of 3 Lewis rats per group were used for blood sampling at each time point (Groups 2-5) at described in the table below.
Plasma Blood Sample Collection: Whole blood was collected from the retro-orbital sinus under 60:40 CO2:O2 anesthesia using EDTA as the anticoagulant. Sample collection was performed at 9 time points: 5, 15, and 30 min and 1, 2, 4, 6, 8, & 24 hr after administration of FK 506. Three samples were collected from each rat per group (Groups 2-5). The first 2 samples were collected under anesthesia, after which the animal regained consciousness and was retained until the next collection interval. […]
Drug levels were determined in collected whole blood samples using a bioanalytical method developed to detect parent drug levels.
Results: The pharmacokinetics parameters of FK 506 were determined in male Lewis rats after 1 mg/kg i.v. administration alone or in combination with i.p, administration of different doses of LNS 0694 (See FIG. 16).

[3] = system: mouse spleen cells, response to Con A; test: In vitro Con A assay on spleen cells; type: cell-based
Excerpt: as §1, §2
Results: FIGS. 8 and 9 show the effect of quercetin and tacrolimus on response of mouse spleen cells to Con A at a high (1.6×10^6 cells/well) and low (8×10^5 cells/well) cell concentration, respectively.
Spleen cells were treated with Con A in the presence of vehicle, tacrolimus, quercetin or two different concentrations of tacrolimus (10^−8.2 and 10^−8.5 M) and increasing doses of quercetin at a high cell concentration (FIG. 14) or at a low cell concentration (FIG. 15). […] There was no significance difference between the effect of quercetin on tacrolimus induced cell suppression in vitro at the different concentrations used for quercetin.

[4] = system: LEW responder splenocytes with irradiated BN stimulators (lymphocyte proliferation); test: Mixed lymphocyte reaction (MLR) with spleen cells of treated Lewis rats; type: cell-based, rat; conditions: LNS 0694 50, 150, 300 mg/kg i.p. 30 minutes prior to FK506 1 mg/kg i.v.
Experimental: Animals: 8-9 weeks-old Lewis and Brown Norway male rats were obtained from Charles River Laboratories. […] Treatment: Lewis rats were treated with different single doses of LNS 0694i.p. 30 minutes prior to single i.v. injections of tacrolimus at a concentration of 1 mg/kg as described in the table below. Spleens were collected at 4 hr after administration of FK506 for use in the in vitro mixed lymphocyte reaction (MLR) and Con A assays. […] Mixed lymphocyte reactions: A single cell suspension of the spleen of each rat on test (LEW, responder) was prepared with a Dounce homogenizer and wash-medium. The cell suspension was depleted of red blood cells (treatment with NH4CL/Tris buffer) and washed twice with wash medium before resuspending in complete medium (CM; […] A single cell suspension of splenocytes from five Brown Norway rats (BN, stimulators) was prepared with the same method. The BN splenocytes were pooled and irradiated with 1,500-2,000 rad (cesium source) before use. Varying numbers of responder cells were mixed with a constant number of stimulators (105) in 96-well, U-bottom cell culture plates to give a final responder:stimulator (R:S) ratio of 10:1,5: 1, 1:1 and 0.5:1 in 200 μl CM. […] The results of the MLR assays [thymidine incorporation as counts per minute (CPM)] are expressed as mean ±SD.

[5] = in vivo; cited from earlier work
[6] = system: LEW responders activated with Con A (lymphocyte proliferation); test: Con A stimulated proliferation of spleen cells of treated Lewis rats; type: cell-based, rat; conditions: LNS 0694 i.p. 30 minutes prior to FK506 1 mg/kg i.v.
Experimental: Animals: 8-9 weeks-old Lewis and Brown Norway male rats were obtained from Charles River Laboratories. […] Treatment: Lewis rats were treated with different single doses of LNS 0694i.p. 30 minutes prior to single i.v. injections of tacrolimus at a concentration of 1 mg/kg as described in the table below. Spleens were collected at 4 hr after administration of FK506 for use in the in vitro mixed lymphocyte reaction (MLR) and Con A assays. […] Varying numbers of responder cells were mixed with a constant number of stimulators (105) in 96-well, U-bottom cell culture plates to give a final responder:stimulator (R:S) ratio of 10:1,5: 1, 1:1 and 0.5:1 in 200 μl CM. Control wells for each cell suspension contained 10^5 responders alone in medium and 10^5 pooled, irradiated stimulators alone in medium (separate wells). For a positive proliferative response, each responder (10^5) was treated with 2.5 μg/ml Con A. […] Each well was pulsed with 1 μCi tritiated thymidine for 18±2 hours before automatic harvesting and analysis in a liquid scintillation counter.

[7] = Pharmacokinetics of FK506 i.v. with Quercetin i.p. in rats; type: in vivo, rat
Experimental: Animals: 8-9 weeks-old rats, e.g., Lewis and Brown Norway male rats, can be used. General procedures for animal care and housing are in accordance with the National Research Council (NRC) Guide for the Care and Use of Laboratory Animals (1996) and the Animal Welfare Standards incorporated in 9 CFR Part 3, 1991.
Treatment: Rats are treated as i.v with FK506 and i.p. with Quercetin at two different concentrations, 500 mg/kg or 200 mg/kg. Subsets of 3 Lewis rats per group are used for blood sampling at each time point (Groups 2-5) at described in the table below.
Plasma Blood Sample Collection: Whole blood is collected from the retro-orbital sinus under 60:40 CO2:O2 anesthesia using EDTA as the anticoagulant. Sample collection is performed at 9 time points: 5, 15, and 30 min and 1, 2, 4, 6, 8, & 24 hr after administration of FK 506. Three samples were collected from each rat per group (Groups 2-5). The first 2 samples are collected under anesthesia, after which the animal regained consciousness and is retained until the next collection interval. The third/last sample is also collected under anesthesia, however the animal is euthanatized prior to anesthetic recovery.
Whole blood samples are placed on dry ice after collection and stored frozen at […] (±10° C.) until analysis.
Drug levels are determined in collected samples using bioanalytical methods developed to detect parent drug levels known in the art.

mdr1a knockout mice = conditions: cited from earlier work
[8] = higher 200 mg/kg quercetin dose i.p.

Structure (SMILES)	effect on response of spleen cells to LPS (proliferation) [1]	effect on peripheral bioavailability of FK506 [2]	effect on tacrolimus induced cell suppression in vitro ([3]; Con A, tacrolimus 10^-8.2 and 10^-8.5 M, increasing doses of quercetin)	effect on response of spleen cells to Con A (proliferation) ([3]; high ([…]10^6 cells/well) and low (8×10^5 cells/well) cell concentration)	effect on FK 506 inhibitory effect in MLR [4]	serum half-life [5] [h]	effect on FK 506 inhibitory effect, responders activated with Con A [6]	effect on peripheral bioavailability of FK506 ([7]; Quercetin i.p. different doses)	effect on calculated AUC (0-infinity) of FK 506 ([7]; Quercetin i.p. different doses, vs control group)	effect on Cmax of FK 506 [7, 8]	effect on Vd of FK 506 [7, 8]	effect on clearance of FK 506 [7, 8]	incidence of fetal cleft palate (mdr1a knockout mice) [%]
O=c1c(O)c(-c2ccc(O)c(O)c2)oc2cc(O)cc(O)c12 [Quercetin, quercetin]	no significant effect	increases the peripheral bioavailability of FK506 in a dose dependent manner	did not impair	no significant effect	increased FK 506 inhibitory effect in a dose-dependent manner	19 to 25	increased FK 506 inhibitory effect	increases the peripheral bioavailability of FK506 in a dose dependent manner	increases	increase	decrease	decrease	
CC[C@H](C)[C@H]1O[C@]2(C=C[C@@H]1C)C[C@@H]1C[C@@H](C/C=C(\C)[C@@H](O[C@H]3C[C@H](OC)[C@@H](O[C@H]4C[C@H](OC)[C@@H](O)[C@H](C)O4)[C@H](C)O3)[C@@H](C)/C=C/C=C3\CO[C@@H]4[C@H](O)C(C)=C[C@@H](C(=O)O1)[C@]34O)O2 [avermectin]													100
